Experimental data reported in patent EP0135429B1, “The synthesis of cyclopropane amino acids and peptides” (THE UNIVERSITY OF GEORGIA RESEARCH FOUNDATION, INC., priority 1983, dated 1992).
Peptide text beside a SMILES is read from it.

Columns and labels:
[1] = test system: intestinal enzymes such as carboxypeptidase and chymotrypsin; test: hydrolysis in the gastrointestinal tract or blood of the consumer; type: in vivo; conditions: after drinking a sweetened beverage
[2] = molecular target: α-chymotrypsin (Bos taurus, UniProt P00766); conditions: after 15 minutes at room temperature; 10:1 substrate:enzyme; 0.5 M ammonium acetate, pH 8

Structure (SMILES)	does not hydrolyze cleave or break down in the gastrointestinal tract or blood [1]	hydrolysis by α-chymotrypsin [2]
COC(=O)[C@H](Cc1ccccc1)NC(=O)C1(N)CC1C(=O)O (some centres unmarked) [Example XXXVIII, 1-Aminocyclopropane-2-carboxylic Acid-1-carboxyl Phenylalanine Methyl Ester]	at least 24 hours	
COC(=O)[C@H](Cc1ccccc1)NC(=O)[C@@H](N)CC(=O)O [aspartame] (H-Asp-Phe-OMe)		hydrolyzed
